Columns and labels:
[1] = tested on: colorectal PDX tumor models; assay: Colorectal cancer PDX in vivo therapy; design: species or system human; conditions: six colorectal PDX models; p<0.0001
Text: To follow up our standard xenograft experiments, we next tested compound activity in human patient-derived tumor xenograft models (PDXs). Firstly, we determined if our compounds were active in in vitro soft agar clonogenic assays, using cells derived from 89 distinct PDX models from different tissue types. In this assay, colony growth was inhibited, but only by up to 50%, in one-third of PDX cell cultures treated with tool compound 2 (Figure 3A–B). Six of the more sensitive colorectal PDX tumor models were selected for in vivo monotherapy either with the lead compound 3 alone, or combined with a standard of care drug (irinotecan or oxaliplatin). […] Importantly, the combination of 3 with standard of care therapies was only of statistically significant benefit in one colorectal tumor model, CFX 1034 (p<0.001; Figure 3C and Figure 3—figure supplement 1).
PDX experiments were conducted at Oncotest (Germany).

[2] = tested on: mouse KS483 osteoprogenitor cells; assay: Bone formation assay in KS483 osteoprogenitor cells (PINP, calcium); type: cell-based; conditions: 13 d
Method: Bone formation assays were conducted by Pharmatest (Finland) in mouse KS483 osteoprogenitor cells cultured for 13 d with LGK974 or 3. The amount of PINP secreted into the culture medium, and calcium deposition, were measured by ELISA (Roche Diagnostics, UK).

LS174T = assay: 14 d colony growth assay, LS174T; type: cell-based, human; conditions: 350 nM, mean (range), n = 2

SMILES	Response of colorectal PDX tumor models to monotherapy [1]	Calcium deposition [2]	PINP secretion [2]	14 d colony growth (relative to control) (LS174T)
Cn1ncc2cc(-c3cnc(N)c(Cl)c3N3CCC4(CCNC4=O)CC3)ccc21 [CMPD 3]	Only two of these colorectal cancer PDX tumors models, CFX 883 and CFX 1753, responded	inhibited in a concentration-dependent manner	stimulated PINP secretion at low concentrations and inhibited PINP secretion at higher concentrations	–
Cc1n[nH]c2ncc(C(=O)N3CCC[C@H]3c3ccc(Cl)cc3)cc12 [CMPD 4]	–	–	–	0.36 (0.01)

— publication PMC5224920, “Assessing the mechanism and therapeutic potential of modulators of the human Mediator complex-associated protein kinases” (eLife, 2016)
